Target: human P2X7 (Homo sapiens (Human), UniProt Q99572)
Assay: P2X7 antagonism in human PBMCs (IL-1β release after LPS + Bz-ATP, ELISA)
Type: cell-based
Conditions: test compound 10 μM

Chain of human P2X7 (Q99572 whole entry): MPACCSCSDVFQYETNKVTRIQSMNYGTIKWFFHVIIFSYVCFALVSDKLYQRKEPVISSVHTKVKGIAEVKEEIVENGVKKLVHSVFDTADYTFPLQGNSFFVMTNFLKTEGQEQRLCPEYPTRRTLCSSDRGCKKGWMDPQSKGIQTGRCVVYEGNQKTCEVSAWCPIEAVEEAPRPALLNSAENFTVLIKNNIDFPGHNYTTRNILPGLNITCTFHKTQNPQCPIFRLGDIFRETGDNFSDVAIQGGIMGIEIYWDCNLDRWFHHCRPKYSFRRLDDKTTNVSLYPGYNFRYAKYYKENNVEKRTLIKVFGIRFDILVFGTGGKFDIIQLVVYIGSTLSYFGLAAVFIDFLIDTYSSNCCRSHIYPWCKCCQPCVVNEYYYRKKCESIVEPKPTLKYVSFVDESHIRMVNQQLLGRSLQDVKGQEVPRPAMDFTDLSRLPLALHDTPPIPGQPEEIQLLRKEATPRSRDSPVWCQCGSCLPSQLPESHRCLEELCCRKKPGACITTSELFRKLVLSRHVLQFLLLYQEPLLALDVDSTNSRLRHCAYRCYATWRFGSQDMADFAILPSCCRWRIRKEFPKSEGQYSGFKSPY

| Compound | PBMC 10 μM (% control) (human PBMCs) | PBMC 10 μM (% control) (LPS 30 ng/ml + 0.5 mM Bz-ATP) |
| --- | --- | --- |
| C[C@H]1c2nnn(-c3ncc(F)cn3)c2CCN1C(=O)c1cccc(C(F)(F)F)c1F (single isomer, unassigned) [Example 178, (S*)-(2-fluoro-3-(trifluoromethyl)phenyl)(1-(5-fluoropyrimidin-2-yl)-4-methyl-6,7-dihydro-1H-[1,2,3]triazolo[4,5-c]pyridin-5(4H)-yl)methanone] | −4.7 | −4.7 |
| Cc1cc(C)nc(-n2nnc3c2CCN(C(=O)c2cccc(C(F)(F)F)c2Cl)[C@@H]3C)n1 (single isomer, unassigned) [Example 181, (R*)-(2-chloro-3-(trifluoromethyl)phenyl)(1-(4,6-dimethylpyrimidin-2-yl)-4-methyl-6,7-dihydro-1H-[1,2,3]triazolo[4,5-c]pyridin-5(4H)-yl)methanone] | −0.1 | −0.1 |
| C[C@H]1Cc2c(nnn2-c2ncc(F)cn2)CN1C(=O)c1ccnc(C(F)(F)F)c1Cl (single isomer, unassigned) [Example 183, (R*)-(3-chloro-2-(trifluoromethyl)pyridin-4-yl)(1-(5-fluoropyrimidin-2-yl)-6-methyl-6,7-dihydro-1H-[1,2,3]triazolo[4,5-c]pyridin-5(4H)-yl)methanone] | −1.2 | −1.2 |
| Cc1ccnc(-n2nnc3c2CCN(C(=O)c2cccc(C(F)(F)F)c2Cl)[C@@H]3C)c1 (single isomer, unassigned) [Example 185, (R*)-(2-chloro-3-(trifluoromethyl)phenyl)(4-methyl-1-(4-methylpyridin-2-yl)-6,7-dihydro-1H-[1,2,3]triazolo[4,5-c]pyridin-5(4H)-yl)methanone] | −3.7 | −3.7 |
| Cc1ccnc(-n2nnc3c2CCN(C(=O)c2cccc(C(F)(F)F)c2Cl)[C@H]3C)c1 (single isomer, unassigned) [Example 186, (S*)-(2-chloro-3-(trifluoromethyl)phenyl)(4-methyl-1-(4-methylpyridin-2-yl)-6,7-dihydro-1H-[1,2,3]triazolo[4,5-c]pyridin-5(4H)-yl)methanone] | −0.5 | −0.5 |
| Cc1c(C(=O)N2Cc3nnn(-c4ncc(F)cn4)c3C[C@H]2C)ccnc1C(F)(F)F (single isomer, unassigned) [Example 187, (S*)-(1-(5-fluoropyrimidin-2-yl)-6-methyl-6,7-dihydro-1H-[1,2,3]triazolo[4,5-c]pyridin-5(4H)-yl)(3-methyl-2-(trifluoromethyl)pyridin-4-yl)methanone] | −0.6 | −0.6 |
| Cc1c(C(=O)N2CCc3c(nnn3-c3ncccn3)[C@H]2C)cccc1C(F)(F)F (single isomer, unassigned) [Example 188, (R*)-(4-methyl-1-(pyrimidin-2-yl)-6,7-dihydro-1H-[1,2,3]triazolo[4,5-c]pyridin-5(4H)-yl)(2-methyl-3-(trifluoromethyl)phenyl)methanone] | −0.7 | −0.7 |

Next, values leading:

| PBMC 10 μM (% control) (human PBMCs) | PBMC 10 μM (% control) (LPS 30 ng/ml + 0.5 mM Bz-ATP) | Compound |
| --- | --- | --- |
| 7.1 |  | C[C@@H]1c2nnn(-c3ncc(F)cn3)c2CCN1C(=O)c1cccc(C(F)(F)F)c1F (single isomer, unassigned) [Example 190, (R*)-(2-fluoro-3-(trifluoromethyl)phenyl)(1-(5-fluoropyrimidin-2-yl)-4-methyl-6,7-dihydro-1H-[1,2,3]triazolo[4,5-c]pyridin-5(4H)-yl)methanone] |
| 5.2 |  | C[C@H]1c2ncn(-c3ccccn3)c2CCN1C(=O)c1cccc(Cl)c1Cl (single isomer, unassigned) [Example 191, (S*)-(2,3-Dichlorophenyl)(4-methyl-1-(pyridin-2-yl)-6,7-dihydro-1H-imidazo[4,5-c]pyridin-5(4H)-yl)methanone] |
| −6.3 | −6.3 | C[C@@H]1c2ncn(-c3ccccn3)c2CCN1C(=O)c1cccc(Cl)c1Cl (single isomer, unassigned) [Example 192, (R*)-(2,3-Dichlorophenyl)(4-methyl-1-(pyridin-2-yl)-6,7-dihydro-1H-imidazo[4,5-c]pyridin-5(4H)-yl)methanone] |
| 1.4 | 1.4 | C[C@@H]1c2ncn(-c3ncc(F)cn3)c2CCN1C(=O)c1cccc(C(F)(F)F)c1Cl (single isomer, unassigned) [Example 193, (R*)-(2-Chloro-3-(trifluoromethyl)phenyl)(1-(5-fluoropyrimidin-2-yl)-4-methyl-6,7-dihydro-1H-imidazo[4,5-c]pyridin-5(4H)-yl)methanone] |
| −3.1 |  | C[C@H]1Cc2c(nnn2-c2cc(F)ccn2)CN1C(=O)c1cccc(Cl)c1Cl (single isomer, unassigned) [Example 196, (6S*)-5-[(2,3-Dichlorophenyl)carbonyl]-1-(4-fluoropyridin-2-yl)-6-methyl-4,5,6,7-tetrahydro-1H-[1,2,3]triazolo[4,5-c]pyridine] |
| 2.1 |  | Cc1c(C(=O)N2CCc3c(nnn3-c3ncccn3)[C@@H]2C)cccc1C(F)(F)F (single isomer, unassigned) [Example 197, (S*)-(4-methyl-1-(pyrimidin-2-yl)-6,7-dihydro-1H-[1,2,3]triazolo[4,5-c]pyridin-5(4H)-yl)(2-methyl-3-(trifluoromethyl)phenyl)methanone] |
| 1.3 |  | C[C@@H]1Cc2c(nnn2-c2cc(F)ccn2)CN1C(=O)c1cccc(C(F)(F)F)c1Cl (single isomer, unassigned) [Example 198, (6R*)-5-{[2-Chloro-3-(trifluoromethyl)phenyl]carbonyl}-1-(4-fluoropyridin-2-yl)-6-methyl-4,5,6,7-tetrahydro-1H-[1,2,3]triazolo[4,5-c]pyridine] |
| 0.0 |  | C[C@H]1Cc2c(nnn2-c2cc(F)ccn2)CN1C(=O)c1cccc(C(F)(F)F)c1Cl (single isomer, unassigned) [Example 199, (6S*)-5-{[2-Chloro-3-(trifluoromethyl)phenyl]carbonyl}-1-(4-fluoropyridin-2-yl)-6-methyl-4,5,6,7-tetrahydro-1H-[1,2,3]triazolo[4,5-c]pyridine] |
| 45.0 |  | Cc1c(C(=O)N2Cc3nnn(-c4ncc(F)cn4)c3C[C@H]2C)cccc1C(F)(F)F (single isomer, unassigned) [Example 207, (6R*)-1-(5-Fluoropyrimidin-2-yl)-6-methyl-5-{[2-methyl-3-(trifluoromethyl)phenyl]carbonyl}-4,5,6,7-tetrahydro-1H-[1,2,3]triazolo[4,5-c]pyridine] |
| 8.2 |  | C[C@@H]1Cc2c(nnn2-c2ncc(F)cn2)CN1C(=O)c1ccc(F)c(Cl)c1Cl (single isomer, unassigned) [Example 214, (6R*)-5-[(2,3-Dichloro-4-fluorophenyl)carbonyl]-1-(5-fluoropyrimidin-2-yl)-6-methyl-4,5,6,7-tetrahydro-1H-[1,2,3]triazolo[4,5-c]pyridine] |
